Data taken from paper PMC2834880 (International journal of biological macromolecules, 2010).
“Also recorded” adds a separate entry of the source. Like-named read-outs stand apart in the source and are kept apart here. Where no end group is shown, it is not given here.

What was measured:
[1] = test system: E. coli strain pBWU13.4/DK8; assay type: cell-based, Escherichia coli
[2] = test system: wild-type E. coli strain pBWU13.4/DK; assay type: cell-based, Escherichia coli
[3] = target: purified F1 and membrane bound F1Fo E. coli ATP synthase (Escherichia coli, UniProt P0ABB4); assay: biochemical
Sequence of purified F1 and membrane bound F1Fo E. coli ATP synthase (P0ABB4 whole entry, looked up): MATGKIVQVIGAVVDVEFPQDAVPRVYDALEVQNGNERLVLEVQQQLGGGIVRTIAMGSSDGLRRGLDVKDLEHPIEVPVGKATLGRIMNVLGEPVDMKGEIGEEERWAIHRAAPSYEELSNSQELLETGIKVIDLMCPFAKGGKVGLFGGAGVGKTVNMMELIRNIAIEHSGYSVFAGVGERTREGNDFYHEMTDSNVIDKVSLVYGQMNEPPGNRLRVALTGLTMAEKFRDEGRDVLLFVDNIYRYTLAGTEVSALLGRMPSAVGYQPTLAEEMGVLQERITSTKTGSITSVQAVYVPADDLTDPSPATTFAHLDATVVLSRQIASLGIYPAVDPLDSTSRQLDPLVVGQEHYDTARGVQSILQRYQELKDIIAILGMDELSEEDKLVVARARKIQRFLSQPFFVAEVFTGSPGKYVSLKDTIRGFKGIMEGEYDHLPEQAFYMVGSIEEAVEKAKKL

[4] = succinate plates, limiting glucose, or LB media

Q: How did the “Growth yield on limiting glucose (%)” value [1] turn out when “Caerin 1.8: amphibian antimicrobial peptide, Litoria chloris, 24 residues (GLFKVLGSVAKHLLPHVVPVIAEK)” was run?
A: Its value is 99%.

Q: And the “growth of E. coli in presence of peptide” value ([2]; succinate plates, limiting glucose, or LB media, listed as carein 1.8)?
A: Its value is “did not affect growth”.

Q: How did the IC50 [3] turn out when AIGSILGALAKGLPTLISWIKNR [MRP] was run?
A: The IC50 was roughly 4.77 µM.

Q: Which results are given for Dermaseptin?
A: ATPase inhibition (%) [3]: 26%; residual ATPase activity at maximal inhibition [3]: ~ 74%; growth of E. coli in presence of peptide [2]: no growth; also recorded: abrogated growth

Q: What does the source list for “Aurein 2.2: amphibian antimicrobial peptide, Litoria aurea, 16 residues (GLFDIVKKVVGALGSL-NH2)”?
A: Growth yield on limiting glucose (%) [1]: 12%; more inhibition of ATPase than aurein 2.3 ([3]; Leu-13 (aurein 2.2) instead of Ile-13 (aurein 2.3)): ~ 40%; growth of E. coli in presence of peptide [2, 4]: no growth; also recorded: abrogated growth

Q: Ascaphin-8 was tested. Which “ATPase inhibition (%)” value [3] did it give?
A: Its value is 59%.

Q: And the “residual ATPase activity at maximal inhibition” value [3]?
A: Its value is ~ 41%.

Q: What about the “growth of E. coli in presence of peptide” value [2] of the same compound?
A: Its value is “no growth; also recorded: abrogated growth”.

Q: With Caerin 1.9 as the compound, how does the “ATPase inhibition (%)” value [3] read?
A: Its value is 52%.

Q: And the “maximal inhibition of ATPase activity” value [3]?
A: Its value is ~ 52%.

Q: Which results are given for Magainin II?
A: ATPase inhibition (%) [3]: 20%; maximal inhibition of ATPase activity [3]: ~ 20%; growth of E. coli in presence of peptide [2]: did not affect growth

Q: Which results are given for “Aurein 2.3: amphibian antimicrobial peptide, Litoria aurea, 16 residues (GLFDIVKKVVGAIGSL-NH2)”?
A: Growth yield on limiting glucose (%) [1]: 24%; growth of E. coli in presence of peptide [2, 4]: no growth; also recorded: abrogated growth

Q: For “XT-7: amphibian antimicrobial peptide, Xenopus tropicalis, 18 residues (GLLGPLLKIAAKVGSNLL)”, which “Growth yield on limiting glucose (%)” value [1] is on record?
A: Its value is 89%.

Q: What about the “growth of E. coli in presence of peptide” value [2, 4] of the same compound?
A: The value was “did not affect growth”.

Q: How did the IC50 [3] turn out when `CC[C@H](C)[C@H](NC(=O)CN)C(=O)NCC(=O)N[C@@H](C)C(=O)N[C@H](C(=O)N[C@@H](CC(C)C)C(=O)N[C@@H](CCCCN)C(=O)N[C@H](C(=O)N[C@@H](CC(C)C)C(=O)N[C@H](C(=O)N[C@H](C(=O)NCC(=O)N[C@@H](CC(C)C)C(=O)N1CCC[C@H]1C(=O)N[C@@H](C)C(=O)N[C@@H](CC(C)C)C(=O)N[C@H](C(=O)N[C@@H](CO)C(=O)N[C@@H](Cc1c[nH]c2ccccc12)C(=O)N[C@H](C(=O)N[C@@H](CCCCN)C(=O)N[C@@H](CCCNC(=N)N)C(=O)N[C@@H](CCCCN)C(=O)N[C@@H](CCCNC(=N)N)C(=O)N[C@@H](CCC(N)=O)C(=O)N[C@@H](CCC(N)=O)C(N)=O)[C@@H](C)CC)[C@@H](C)CC)[C@@H](C)O)[C@@H](C)O)C(C)C)C(C)C` [Melittin-NH2, reference compound] was run?
A: The IC50 was roughly 4.68 µM.

Q: Which “ATPase inhibition (%)” value [3] does the source give for Citropin 1.1 here?
A: Its value is 57%.

Q: What about the “residual ATPase activity at maximal inhibition” value [3] of the same compound?
A: The value was ~ 43%.

Q: What about the “growth of E. coli in presence of peptide” value [2] of the same compound?
A: Its value is “no growth; also recorded: abrogated growth”.
